Legend:
[1] = target: T1, Protein cereblon/Serine/threonine-protein kinase PLK4 (Homo sapiens, UniProt O00444+Q96SW2); test: Protac activity at CRBN/PLK4 in human MCF7 cells at 10 uM incubated for 48 hrs by Western blot analysis; type: cell-based
[2] = target: T1, Protein cereblon/Serine/threonine-protein kinase PLK4; test: Protac activity at CRBN/PLK4 in human MCF7 cells at 1 uM incubated for 48 hrs by Western blot analysis; type: cell-based
[3] = target: T2, Serine/threonine-protein kinase PLK4 (Homo sapiens, UniProt O00444); test: Inhibition of PLK4 (unknown origin) incubated for 1 hr in presence of kinase tracer 236 by FRET assay
T2 sequence (O00444 whole entry): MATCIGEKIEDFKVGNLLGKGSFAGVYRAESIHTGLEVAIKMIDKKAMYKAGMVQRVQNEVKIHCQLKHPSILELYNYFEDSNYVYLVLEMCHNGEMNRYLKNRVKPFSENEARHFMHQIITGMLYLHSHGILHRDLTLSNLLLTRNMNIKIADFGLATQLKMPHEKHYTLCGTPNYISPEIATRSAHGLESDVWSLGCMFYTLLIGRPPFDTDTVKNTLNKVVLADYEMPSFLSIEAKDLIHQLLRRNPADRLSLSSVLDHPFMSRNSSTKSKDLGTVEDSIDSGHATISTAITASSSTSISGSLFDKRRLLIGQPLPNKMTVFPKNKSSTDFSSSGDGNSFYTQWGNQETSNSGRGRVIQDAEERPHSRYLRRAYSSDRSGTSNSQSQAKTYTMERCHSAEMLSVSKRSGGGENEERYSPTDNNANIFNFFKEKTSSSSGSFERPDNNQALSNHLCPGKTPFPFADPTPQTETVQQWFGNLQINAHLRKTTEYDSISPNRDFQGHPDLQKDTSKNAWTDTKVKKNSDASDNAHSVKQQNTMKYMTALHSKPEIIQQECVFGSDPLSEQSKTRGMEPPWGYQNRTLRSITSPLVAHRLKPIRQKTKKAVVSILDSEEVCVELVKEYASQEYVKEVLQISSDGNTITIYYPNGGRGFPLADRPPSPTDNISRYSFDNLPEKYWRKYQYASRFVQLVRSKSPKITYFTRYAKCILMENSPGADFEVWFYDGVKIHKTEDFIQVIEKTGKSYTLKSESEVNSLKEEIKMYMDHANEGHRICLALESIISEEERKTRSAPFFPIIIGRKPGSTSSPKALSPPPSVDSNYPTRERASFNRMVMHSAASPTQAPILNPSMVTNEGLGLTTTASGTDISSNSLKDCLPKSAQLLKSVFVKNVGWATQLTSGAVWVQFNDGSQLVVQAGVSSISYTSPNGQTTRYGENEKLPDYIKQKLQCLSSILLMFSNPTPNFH

[4] = target: T1, Protein cereblon/Serine/threonine-protein kinase PLK4; test: Protac activity at CRBN/PLK4 in human MCF7 cells at 0.1 uM incubated for 48 hrs by Western blot analysis; type: cell-based
[5] = tested on: MCF7; test: Antiproliferative activity against human MCF7 cells incubated for 5 days by CCK-8 assay; settings: MCF7, 120 h
[6] = Stability in human plasma assessed as half life at 100 uM after 120 mins by LC-MS/MS analysis; type: ADME, cell-free
[7] = tested on: CYP2D6; test: Inhibition of CYP2D6 in human liver microsomes at 10 uM using quinidine as substrate preincubated for 10 mins followed by NADPH regenerating system addition and measured after 15 mins by LC-MS/MS analysis relative to control; type: ADME, Microsome; settings: time 25 min

T1 sequence (Q96SW2 whole entry, looked up, one chain of several): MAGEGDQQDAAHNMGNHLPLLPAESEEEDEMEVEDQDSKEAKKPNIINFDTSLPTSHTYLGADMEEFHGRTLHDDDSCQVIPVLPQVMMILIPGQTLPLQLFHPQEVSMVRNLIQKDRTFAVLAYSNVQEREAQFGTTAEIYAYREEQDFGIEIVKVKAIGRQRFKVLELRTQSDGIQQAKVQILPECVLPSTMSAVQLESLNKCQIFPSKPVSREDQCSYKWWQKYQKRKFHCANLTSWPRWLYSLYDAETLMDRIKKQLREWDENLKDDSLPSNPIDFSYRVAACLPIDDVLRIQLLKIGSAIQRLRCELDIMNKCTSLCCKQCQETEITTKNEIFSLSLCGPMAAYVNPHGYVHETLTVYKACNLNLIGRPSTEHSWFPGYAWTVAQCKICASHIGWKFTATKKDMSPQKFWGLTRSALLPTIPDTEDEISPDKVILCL

SMILES	Activity [1] [%]	Activity [2] [%]	IC50 [3] [nM]	Activity [4] [%]	IC50 [5] [nM]	half-life at 100 µM [6] [min]	inhibition at 0.25 h, 10 µM [7] [%]
Cc1cc(Nc2nc(NCc3ccc(F)cc3F)nc3c2cnn3C2CCN(C(=O)C3CC4(C3)CN(c3ccc5c(c3)C(=O)N(C3CCC(=O)NC3=O)C5=O)C4)CC2)n[nH]1 (stereo not drawn)	4.01	2.39	75.2	0.28			
Cc1cc(Nc2nc(NCc3ccc(F)cc3F)nc3c2cnn3C2CCN(C(=O)c3ccc(C4CCN(c5ccc6c(c5)C(=O)N(C5CCC(=O)NC5=O)C6=O)CC4)cc3)CC2)n[nH]1 (stereo not drawn)	69.9	61.4	82.7	50.5	2500		
Cc1cc(Nc2nc(NCc3ccc(F)cc3F)nc3c2cnn3C2CCN(CC3CCN(c4ccc5c(c4)C(=O)N(C4CCC(=O)NC4=O)C5=O)CC3)CC2)n[nH]1 (stereo not drawn)	19.2	8.64	3.1	2.16			
Cc1cc(Nc2nc(NCc3ccc(F)cc3F)nc3c2cnn3C2CCN(C(=O)CCCCCCCCCCCCCCCCCOc3ccc4c(c3)C(=O)N(C3CCC(=O)NC3=O)C4=O)CC2)n[nH]1 (stereo not drawn)	58.1	46.8	19.6	20.2			
Cc1cc(Nc2nc(NCc3ccc(F)cc3F)nc3c2cnn3C2CCN(CC3CC4(C3)CN(c3ccc5c(c3)C(=O)N(C3CCC(=O)NC3=O)C5=O)C4)CC2)n[nH]1 (stereo not drawn)		6.07	42.3	4.12			
Cc1cc(Nc2nc(NCc3ccc(F)cc3F)nc3c2cnn3C2CCN(C(=O)CC3CCN(c4ccc5c(c4)C(=O)N(C4CCC(=O)NC4=O)C5=O)CC3)CC2)n[nH]1 (stereo not drawn)		51	19.1	46.2	2460		
Cc1cc(Nc2nc(NCc3ccc(F)cc3F)nc3c2cnn3C2CCN(C(=O)CC3CCN(c4ccc5c(c4)C(=O)N(C4CCC(=O)NC4=O)C5=O)C3)CC2)n[nH]1 (stereo not drawn)		48.9	8.1	39.2			
Cc1cc(Nc2nc(NCc3ccc(F)cc3F)nc3c2cnn3C2CCN(CC3CN(c4ccc5c(c4)C(=O)N(C4CCC(=O)NC4=O)C5=O)C3)CC2)n[nH]1 (stereo not drawn)	42.2	31.1	10.1	2.33			
Cc1cc(Nc2nc(NCc3ccc(F)cc3F)nc3c2cnn3C2CCN(C(=O)CC3CN(c4ccc5c(c4)C(=O)N(C4CCC(=O)NC4=O)C5=O)C3)CC2)n[nH]1 (stereo not drawn)		70.4	12.9	47.7	510		
Cc1cc(Nc2nc(NCc3ccc(F)cc3F)nc3c2cnn3C2CCN(C(=O)CCCCCCCCCCCCCCCOc3ccc4c(c3)C(=O)N(C3CCC(=O)NC3=O)C4=O)CC2)n[nH]1 (stereo not drawn)	43.5	37.8	121	24.1			
Cc1cc(Nc2nc(NCc3ccc(F)cc3F)nc3c2cnn3C2CCN(CC3CCN(c4ccc5c(c4)C(=O)N(C4CCC(=O)NC4=O)C5=O)C3)CC2)n[nH]1 (stereo not drawn)	26.1	8.91	13.6	3.54			
Cc1cc(Nc2nc(NCc3ccc(F)cc3F)nc3c2cnn3C2CCN(Cc3ccc(C4CCN(c5ccc6c(c5)C(=O)N(C5CCC(=O)NC5=O)C6=O)CC4)cc3)CC2)n[nH]1 (stereo not drawn)	7.32	3.11	106	1.05			
CC(C)[N+](C)(CCOC(=O)C1c2ccccc2Oc2ccccc21)C(C)C.[Br-] [PROPANTHELINE BROMIDE]						19.8	
Cc1cc(Nc2nc(NCc3ccc(F)cc3F)nc3c2cnn3C2CCN(C(=O)C3CN(c4ccc5c(c4)C(=O)N(C4CCC(=O)NC4=O)C5=O)C3)CC2)n[nH]1 (stereo not drawn)	73.5	52.2	18.9	46.3	250		
Cc1cc(Nc2nc(NCc3ccc(F)cc3F)nc3c2cnn3C2CCNCC2)n[nH]1					650		
C=C[C@H]1C[N@@]2CC[C@H]1C[C@@H]2[C@@H](O)c1ccnc2ccc(OC)cc12 [QUINIDINE]							95.9
Cc1cc(Nc2nc(NCc3ccc(F)cc3F)nc3c2cnn3C2CCN(C(=O)CC3CC4(C3)CN(c3ccc5c(c3)C(=O)N(C3CCC(=O)NC3=O)C5=O)C4)CC2)n[nH]1 (stereo not drawn)	24.3	5.49	61.1	1.84			
Cc1cc(Nc2nc(NCc3ccc(F)cc3F)nc3c2cnn3C2CCN(C(=O)CCCCCCCCCCCCCOc3ccc4c(c3)C(=O)N(C3CCC(=O)NC3=O)C4=O)CC2)n[nH]1 (stereo not drawn)	35.9	22.8	154	11.6			
Cc1cc(Nc2nc(NCc3ccc(F)cc3F)nc3c2cnn3C2CCN(C(=O)Cc3ccc(N4CCN(c5ccc6c(c5)C(=O)N(C5CCC(=O)NC5=O)C6=O)CC4)cc3)CC2)n[nH]1 (stereo not drawn)		57.6	216	40.1	6980		
Cc1cc(Nc2nc(NCc3ccc(F)cc3F)nc3c2cnn3C2CCN(C(=O)CCCCCCCCCCCOc3ccc4c(c3)C(=O)N(C3CCC(=O)NC3=O)C4=O)CC2)n[nH]1 (stereo not drawn)	21.7	13.2	531	4.29			
Cc1cc(Nc2nc(NCc3ccc(F)cc3F)nc3c2cnn3C2CCN(C(=O)C3CCN(c4ccc5c(c4)C(=O)N(C4CCC(=O)NC4=O)C5=O)C3)CC2)n[nH]1 (stereo not drawn)	66.8	56.1	5.5	36.7	260		

More lines, now with the values ahead:

Activity [1] [%]	Activity [2] [%]	IC50 [3] [nM]	Activity [4] [%]	IC50 [5] [nM]	half-life at 100 µM [6] [min]	inhibition at 0.25 h, 10 µM [7] [%]	SMILES
23.6	103	1080	2.81				Cc1cc(Nc2nc(NCc3ccc(F)cc3F)nc3c2cnn3C2CCN(C(=O)CCCCCCCCCOc3ccc4c(c3)C(=O)N(C3CCC(=O)NC3=O)C4=O)CC2)n[nH]1 (stereo not drawn)
50.3	38.9	42.2	30.2				Cc1cc(Nc2nc(NCc3ccc(F)cc3F)nc3c2cnn3C2CCN(C(=O)CCCCCCCOc3ccc4c(c3)C(=O)N(C3CCC(=O)NC3=O)C4=O)CC2)n[nH]1 (stereo not drawn)
52.2	46.4	37.9	29.1				Cc1cc(Nc2nc(NCc3ccc(F)cc3F)nc3c2cnn3C2CCN(C(=O)CCOCCOCCCOc3ccc4c(c3)C(=O)N(C3CCC(=O)NC3=O)C4=O)CC2)n[nH]1 (stereo not drawn)
28.3	5.34	1.9	2.13				Cc1cc(Nc2nc(NCc3ccc(F)cc3F)nc3c2cnn3C2CCN(C(=O)COCCOc3ccc4c(c3)C(=O)N(C3CCC(=O)NC3=O)C4=O)CC2)n[nH]1 (stereo not drawn)
43.9	28.5	5.6	25.3				Cc1cc(Nc2nc(NCc3ccc(F)cc3F)nc3c2cnn3C2CCN(C(=O)COc3ccc4c(c3)C(=O)N(C3CCC(=O)NC3=O)C4=O)CC2)n[nH]1 (stereo not drawn)
19.7	13.4	3.6	5.68				Cc1cc(Nc2nc(NCc3ccc(F)cc3F)nc3c2cnn3C2CCN(C(=O)CCOCCOc3ccc4c(c3)C(=O)N(C3CCC(=O)NC3=O)C4=O)CC2)n[nH]1 (stereo not drawn)
38.5	30.3	9.4	24.6				Cc1cc(Nc2nc(NCc3ccc(F)cc3F)nc3c2cnn3C2CCN(C(=O)COCCOCCOc3ccc4c(c3)C(=O)N(C3CCC(=O)NC3=O)C4=O)CC2)n[nH]1 (stereo not drawn)
68.9	55.3	9.1	31.7	220			Cc1cc(Nc2nc(NCc3ccc(F)cc3F)nc3c2cnn3C2CCN(C(=O)CCCCCCOc3ccc4c(c3)C(=O)N(C3CCC(=O)NC3=O)C4=O)CC2)n[nH]1 (stereo not drawn)
57.7	46.7	5.5	31.3				Cc1cc(Nc2nc(NCc3ccc(F)cc3F)nc3c2cnn3C2CCN(C(=O)CCCCCOc3ccc4c(c3)C(=O)N(C3CCC(=O)NC3=O)C4=O)CC2)n[nH]1 (stereo not drawn)
63.6	56.8	2.6	44.1	260			Cc1cc(Nc2nc(NCc3ccc(F)cc3F)nc3c2cnn3C2CCN(C(=O)CCCCOc3ccc4c(c3)C(=O)N(C3CCC(=O)NC3=O)C4=O)CC2)n[nH]1 (stereo not drawn)

Source: ChEMBL document CHEMBL5338818, “Discovery of the First Potent, Selective, and In Vivo Efficacious Polo-like Kinase 4 Proteolysis Targeting Chimera Degrader for the Treatment of TRIM37-Amplified Breast Cancer” (J Med Chem, 2023)
